Entries after “also recorded” stand apart in the source; their conditions may differ.

Assay [1] concerns the target T1, E-selectin-Ig fusion protein (Homo sapiens, UniProt P16581).
T1 construct: Fc is only a tag
T1 sequence (P16581 22-610): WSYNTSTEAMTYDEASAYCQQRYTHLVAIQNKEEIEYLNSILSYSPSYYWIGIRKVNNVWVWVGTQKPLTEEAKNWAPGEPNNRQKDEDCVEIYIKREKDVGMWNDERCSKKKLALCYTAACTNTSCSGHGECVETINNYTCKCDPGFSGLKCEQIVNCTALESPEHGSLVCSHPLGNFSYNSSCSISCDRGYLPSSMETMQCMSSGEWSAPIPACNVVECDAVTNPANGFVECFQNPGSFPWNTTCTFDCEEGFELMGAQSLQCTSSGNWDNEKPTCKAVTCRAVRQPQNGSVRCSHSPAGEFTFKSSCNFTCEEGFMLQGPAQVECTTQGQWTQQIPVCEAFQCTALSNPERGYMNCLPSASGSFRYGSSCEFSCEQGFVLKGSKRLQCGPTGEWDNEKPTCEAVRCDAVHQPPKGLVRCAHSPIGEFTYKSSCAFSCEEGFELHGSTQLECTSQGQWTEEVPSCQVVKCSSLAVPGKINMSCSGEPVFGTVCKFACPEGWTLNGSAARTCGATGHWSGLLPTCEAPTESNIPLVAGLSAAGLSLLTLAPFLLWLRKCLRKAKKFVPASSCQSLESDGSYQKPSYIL
The assay can be described thus: Direct binding of ganglioside-coated latex beads to E-selectin-Ig coated fluorescent beads by flow cytometry. The settings on record: ganglioside-coated latex beads mixed with E-selectin-Ig fluorescent beads. The method, then:
5×10^6 polystyrene latex beads (diameter […]) (IDC Spheres™; IDC, Portland, Oreg.) were washed with ethanol by centrifugation. 1 μg of GSL in 50 μL of ethanol was added to the washed beads and the mixture was evaporated under nitrogen stream. The beads were resuspended in 1% BSA in PBS(+) and washed twice by centrifugation. Washed beads were blocked with 3% BSA in PBS(+) at room temperature for 2 hr. After centrifugation, beads were resuspended in 1% BSA in PBS(+) with 0.1% azide and stored at 4° C. Yellow-green fluorescent sulfated latex beads (diameter 1 μm) (Molecular Probes, Inc., Portland, Oreg.) were coated with goat anti-human IgG (Fc-fragment specific) antibody (Jackson Immunoresearch Lab, West Grove, Pa.) according to manufacturer's protocol. After washing 3× with PBS, beads were blocked with 3% BSA in PBS at 4° C. for 2 hr. Blocked beads (about 5×10^8) were mixed with 1.5 mL of E- or P-selectin-Ig fusion protein containing culture supernatant (about 1 μg/mL fusion protein) from CHO transfectants (Handa et al., 1995 Int. J. Oncol. 6:773-781) with a blood mixer at 4° C. for 6-18 hr. This mixing procedure was repeated 3 times more using new culture supernatant containing the fusion protein. After washing with PBS, beads were incubated in 1 mL PBS containing 50 μg human IgG (Jackson Immunoresearch). For preparation of control beads, human IgG was used at 1 μg/mL, instead of fusion protein. The ganglioside-coated beads were mixed with the fluorescent beads at room temperature for various durations. The resulting suspension was subjected to flow cytometric analysis. Conditions of each assay are detailed below.
Adhesion under conditions of E- or P-selectin-binding to various gangliosides was assessed by a novel, sensitive method using E- or P-selectin-coated fluorescent beads (FIGS. 2 and 3). Adhesion was determined by aggregation of polystyrene beads coated with myelorollin, and selectin-coated fluorescent beads. Gangliosides were coated on non-fluorescent polystyrene beads and mixed with fluorescent beads coated with E- or P-selectin in the presence or absence of EDTA. Since aggregation occurs under brief, strong agitation, the process is neither "static" nor "dynamic" adhesion, in which myelorollin is presented as immovable solid phase. In this system, solid phases containing both myelorollin and selectin are in dynamic condition. Binding was determined by cytofluorometry. Ganglioside fractions used in this experiment were the same as described in Table 1. In addition: Sdiy^2, sialosyl Le^x -Le^x (VI^3 NeuAcV^3 FucIII^3 FucnLc6 Cer); SLe^x (IV^3 NeuAcIII^3 FucnLc4 Cer). These designated structures are based on ^1 H NMR, mass spectrometry. Binding index was defined as mean fluorescence intensity (MFI) of ganglioside fraction divided by MFI of sialylparagloboside (IV^3 NeuAcnLc4 Cer).
Referring to FIG. 2: open columns, E-selectin-IgG beads. Lighter shaded columns, E-selectin-IgG beads in the presence of 5 mM EDTA. Darker shaded columns, P-selectin-IgG beads. Solid columns, human IgG control beads. The binding of myelorollin to E-selectin beads was completely abolished in the presence of EDTA; myelorollin was unable to bind to P-selectin.
Binding index was defined as MFI of sample divided by MFI of sialylparagloboside as in FIG. 2. Open columns, E-selectin-IgG beads preincubated with control mouse IgG. Solid columns, E-selectin-IgG beads preincubated with mAb E1C. […]

Assay [2] concerns CHO cells permanently expressing E-selectin. To be noted: TLC overlay, Stroud et al. 1995, 1996; cited from earlier work.

As for “VI^3 NeuAcV^3 FucIII^3 FucnLc6 Cer [SLe^x -Le^x, reference compound]”, the “binding to E-selectin beads (binding index, MFI relative to sialylparagloboside)” value in assay [1] (listed as Str. 3) was “did show binding; also recorded: bound to E-selectin”. For VI^3 NeuAcnLc6 Cer [Fr. 7], the “binding to E-selectin beads (binding index, MFI relative to sialylparagloboside)” value is reported as “no binding to E-selectin” in assay [1] and “no binding whatsoever” in assay [1] (listed as Str. 1). As to “X^3 NeuAcVII^3 FucV^3 FucnLc10 Cer [Fr. 13-1]”, the “binding to E-selectin beads (binding index, MFI relative to sialylparagloboside)” value in assay [1] is on record as “clear binding; also recorded: bind strongly to E-selectin”. Moreover, the “E-selectin binding/adhesion under static conditions in previous studies” value in assay [2] is listed as “capable of binding E-selectin under static conditions”. Take X^3 NeuAcVII^3 FucnLc10 Cer [Fr. 12-2]: the “binding to E-selectin beads (binding index, MFI relative to sialylparagloboside)” value in assay [1] is given as “weak adhesion”.
